Test results taken from patent US8252751B2, “Organic compounds” (Novartis AG, priority 2007, dated 2012).
Values joined by “and” are separate entries in the source; they are usually repeats but may differ in a detail not shown here. Equal entries are not always repeated. Where two headings read alike, the source gives them in different places.

What was measured:
Assay type in all cases: biochemical
[1] = molecular target: T1, human DPP-8 (Homo sapiens, UniProt Q6V1X1); assay: DPP-8 (dipeptidyl-peptidase 8) IC50 assay, Gly-Pro-AMC fluorescence intensity
T1 construct: human DPP-8 covering amino acid 1-882; made in house; host or cells: insect cells (baculovirus expression system)
T1 sequence (Q6V1X1 17-898): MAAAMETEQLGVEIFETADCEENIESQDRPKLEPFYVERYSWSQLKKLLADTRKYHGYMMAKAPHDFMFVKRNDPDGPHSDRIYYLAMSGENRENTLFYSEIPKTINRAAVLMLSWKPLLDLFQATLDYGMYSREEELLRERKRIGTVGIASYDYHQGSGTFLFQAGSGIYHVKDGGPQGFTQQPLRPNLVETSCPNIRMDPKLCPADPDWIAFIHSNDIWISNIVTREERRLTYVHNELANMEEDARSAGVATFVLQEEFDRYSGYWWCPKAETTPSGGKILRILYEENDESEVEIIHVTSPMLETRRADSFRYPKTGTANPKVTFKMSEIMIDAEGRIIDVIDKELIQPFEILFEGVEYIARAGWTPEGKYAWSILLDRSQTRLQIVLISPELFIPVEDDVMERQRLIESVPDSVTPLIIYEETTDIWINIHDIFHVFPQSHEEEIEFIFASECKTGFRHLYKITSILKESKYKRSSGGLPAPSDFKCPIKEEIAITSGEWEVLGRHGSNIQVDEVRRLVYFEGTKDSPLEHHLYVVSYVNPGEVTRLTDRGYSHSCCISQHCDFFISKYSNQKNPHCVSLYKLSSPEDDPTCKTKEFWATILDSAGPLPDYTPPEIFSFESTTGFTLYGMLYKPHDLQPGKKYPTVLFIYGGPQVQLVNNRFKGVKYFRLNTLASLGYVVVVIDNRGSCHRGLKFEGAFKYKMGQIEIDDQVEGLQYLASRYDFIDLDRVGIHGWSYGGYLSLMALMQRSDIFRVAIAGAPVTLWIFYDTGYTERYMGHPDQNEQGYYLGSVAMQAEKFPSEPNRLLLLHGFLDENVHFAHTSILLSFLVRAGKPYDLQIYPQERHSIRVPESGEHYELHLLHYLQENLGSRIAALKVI
Source text: (§1) For fluorescence intensity (FI) measurements with AMC as dye, an Ultra Evolution reader (TECAN, Maennedorf, Switzerland) was used. The instrument was equipped with a combination of a 350 nm (20 nm bandwidth) and a 500 nm (25 nm bandwidth) bandpath filter for fluorescence excitation and emission acquisition, respectively. To increase the signal:background ratio, an appropriate dichroic mirror was employed. All filters and the dichroic mirror were purchased from TECAN.
(§2) The data from the independent assay runs was averaged and plotted using program of Origin 7.5SR6 (OriginLab Corporation, Northampton, Mass., USA). Origin's built-in non-linear regression routine was used to fit the averaged data to the ‘logistics’ function y=A2+(A1−A2)/(1+(x/IC50)^p) (Equation 1) where y is the %-inhibition at the inhibitor concentration, x. A1 is the lowest inhibition value, i.e. 0%, and A2 the maximum inhibition value, i.e. 100%. The exponent, p, is the Hill coefficient. B. Determination of IC50 Values […]
(§3) For the determination of IC50 values, the assays were performed at room temperature in 384-well plates. All final assay volumes were 30 μl. Test compounds were dissolved in 90% (v/v) DMSO/water and diluted in water (containing 0.05% (w/v) CHAPS) to 3-times the desired assay concentration. For each assay, 10 μl water/CHAPS (±test compound) were added per well, followed by 10 μl protease solution (diluted with assay buffer; for final assay concentration cf. § Assay conditions). After 1 hour of incubation at room temperature, the reaction was started by addition of 10 μl substrate solution (for final concentrations cf. § Assay conditions). The eleven final compound concentrations were either 0.9 nM, 3 nM, 9 nM, 30 nM, 90 nM, 300 nM, 900 nM, 3 μM, 9 μM, 30 μM and 90 μM or 3 nM, 10 nM, 30 nM, 100 nM, 300 nM, 1 μM, 3 μM, 10 μM, 30 μM, 100 μM and 300 μM. The effect of the compound on the enzymatic activity was obtained from the linear progress curves and determined from two readings, the first one taken directly after the addition of substrate (t=0 min) and the second one after 1 hour (t=60 min). The IC50 value was calculated from the plot of percentage of inhibition vs. inhibitor concentration using non-linear regression analysis software (XLfit, Vers. 4.0; ID Business Solution Ltd., Guildford, Surrey, UK).
(§4) 4.—DPP-8 (dipeptidyl-peptidase 8) enzyme: human DPP-8 covering amino acid 1-882; expressed in and purified from insect cells (baculovirus expression system) substrate: Gly-Pro-AMC, purchased from Bachem (www.bachem.com), catalogue number I-1225 enzyme concentration: 0.05 nM substrate concentration: 10 μM assay buffer: 25 mM Tris, pH 7.4, 140 mM NaCl, 10 mM KCl, 0.05% (w/v) CHAPS

[2] = molecular target: T2, human PEP (Homo sapiens, UniProt P48147); assay: PEP (prolyl-endopeptidase) IC50 assay, Z-Gly-Pro-AMC fluorescence intensity
T2 construct: human PEP covering amino acid 1-710; made in house; host or cells: Pichia pastoris
T2 sequence (P48147 1-710): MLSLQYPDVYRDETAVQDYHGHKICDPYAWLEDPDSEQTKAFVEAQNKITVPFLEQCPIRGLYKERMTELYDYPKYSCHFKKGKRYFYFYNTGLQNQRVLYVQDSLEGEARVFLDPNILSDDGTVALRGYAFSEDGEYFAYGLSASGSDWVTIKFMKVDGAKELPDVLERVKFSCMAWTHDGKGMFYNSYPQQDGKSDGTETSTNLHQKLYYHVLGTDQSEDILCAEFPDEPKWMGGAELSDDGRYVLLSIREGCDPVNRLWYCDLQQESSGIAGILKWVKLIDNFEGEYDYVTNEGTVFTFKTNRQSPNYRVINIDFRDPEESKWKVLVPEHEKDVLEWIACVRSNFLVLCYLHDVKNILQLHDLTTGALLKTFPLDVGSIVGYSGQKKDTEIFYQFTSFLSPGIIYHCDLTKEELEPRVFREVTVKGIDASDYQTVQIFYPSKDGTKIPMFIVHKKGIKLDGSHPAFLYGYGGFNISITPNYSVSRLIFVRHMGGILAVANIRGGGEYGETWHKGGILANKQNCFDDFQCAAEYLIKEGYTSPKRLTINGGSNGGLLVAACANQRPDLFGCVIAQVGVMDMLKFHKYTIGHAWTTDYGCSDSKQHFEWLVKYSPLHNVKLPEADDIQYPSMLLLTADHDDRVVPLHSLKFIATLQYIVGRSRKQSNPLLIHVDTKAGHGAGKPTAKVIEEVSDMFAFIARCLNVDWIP
Source text: as §1, §2
as §3, with “The eleven final compound concentrations were either 0.9 nM, 3 nM, 9 nM, 30 nM, 90 nM, 300 nM, 900 nM, 3 μM, 9 μM, 30 μM and 90 μM or 3 nM, 10 nM, 30 nM, 100 nM, 300 nM, 1 μM, 3 μM, 10 μM, 30 μM, 100 μM and 300 μM.” left out, “UK). […]” for “UK).”

[3] = molecular target: T3, human FAP (Homo sapiens, UniProt Q12884); assay: FAP (fibroblast activation protein, alpha) IC50 assay, Z-Gly-Pro-AMC fluorescence intensity
T3 construct: human FAPa covering amino acid 27-760 excluding the cytoplasmic and transmebrane domains; made in house; host or cells: insect cells (baculovirus expression system)
T3 sequence (Q12884 27-760): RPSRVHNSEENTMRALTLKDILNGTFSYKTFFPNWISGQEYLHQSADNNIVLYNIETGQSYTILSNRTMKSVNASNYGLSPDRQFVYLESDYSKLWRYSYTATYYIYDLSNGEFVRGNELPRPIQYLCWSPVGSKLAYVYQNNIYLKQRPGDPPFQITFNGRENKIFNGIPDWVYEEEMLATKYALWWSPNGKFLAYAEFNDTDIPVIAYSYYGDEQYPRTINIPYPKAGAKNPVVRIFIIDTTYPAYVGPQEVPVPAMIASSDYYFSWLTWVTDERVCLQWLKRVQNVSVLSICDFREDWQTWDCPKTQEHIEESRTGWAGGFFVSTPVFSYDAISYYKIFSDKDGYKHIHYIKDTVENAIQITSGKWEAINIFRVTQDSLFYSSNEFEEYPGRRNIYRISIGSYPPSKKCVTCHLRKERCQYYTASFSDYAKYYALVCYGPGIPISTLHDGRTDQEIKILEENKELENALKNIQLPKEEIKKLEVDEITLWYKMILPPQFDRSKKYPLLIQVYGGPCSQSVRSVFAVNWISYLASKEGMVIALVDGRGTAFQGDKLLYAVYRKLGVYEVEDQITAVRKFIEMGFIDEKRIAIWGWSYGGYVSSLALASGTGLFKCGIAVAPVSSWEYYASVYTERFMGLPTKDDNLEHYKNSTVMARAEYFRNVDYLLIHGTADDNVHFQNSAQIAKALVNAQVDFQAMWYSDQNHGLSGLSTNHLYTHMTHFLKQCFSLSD
Source text: as §1
The data from the independent assay runs was averaged and plotted using program of Origin 7.5SR6 (OriginLab Corporation, Northampton, Mass., USA). Origin's built-in non-linear regression routine was used to fit the averaged data to the ‘logistics’ function y=A2+(A1−A2)/(1+(x/IC50)^p) (Equation 1) where y is the %-inhibition at the inhibitor concentration, x. A1 is the lowest inhibition value, i.e. 0%, and A2 the maximum inhibition value, i.e. 100%. The exponent, p, is the Hill coefficient. B. Determination of IC50 Values
as §3, with “The eleven final compound concentrations were either 0.9 nM, 3 nM, 9 nM, 30 nM, 90 nM, 300 nM, 900 nM, 3 μM, 9 μM, 30 μM and 90 μM or 3 nM, 10 nM, 30 nM, 100 nM, 300 nM, 1 μM, 3 μM, 10 μM, 30 μM, 100 μM and 300 μM.” left out, “UK). […]” for “UK).”

[4] = molecular target: T4, endogenous human DPP-IV from plasma sample (Homo sapiens, UniProt P27487); assay: human plasma DPP-IV IC50 assay, (H-Ala-Pro)2-Rh110 fluorescence intensity; settings: for IC50: 50% plasma
T4 construct: endogenous human DPP-IV from plasma sample, male donors; from tissue; host or cells: human blood plasma, male donors, diluted to 50% plasma content
T4 sequence (P27487 39-766 limits assumed): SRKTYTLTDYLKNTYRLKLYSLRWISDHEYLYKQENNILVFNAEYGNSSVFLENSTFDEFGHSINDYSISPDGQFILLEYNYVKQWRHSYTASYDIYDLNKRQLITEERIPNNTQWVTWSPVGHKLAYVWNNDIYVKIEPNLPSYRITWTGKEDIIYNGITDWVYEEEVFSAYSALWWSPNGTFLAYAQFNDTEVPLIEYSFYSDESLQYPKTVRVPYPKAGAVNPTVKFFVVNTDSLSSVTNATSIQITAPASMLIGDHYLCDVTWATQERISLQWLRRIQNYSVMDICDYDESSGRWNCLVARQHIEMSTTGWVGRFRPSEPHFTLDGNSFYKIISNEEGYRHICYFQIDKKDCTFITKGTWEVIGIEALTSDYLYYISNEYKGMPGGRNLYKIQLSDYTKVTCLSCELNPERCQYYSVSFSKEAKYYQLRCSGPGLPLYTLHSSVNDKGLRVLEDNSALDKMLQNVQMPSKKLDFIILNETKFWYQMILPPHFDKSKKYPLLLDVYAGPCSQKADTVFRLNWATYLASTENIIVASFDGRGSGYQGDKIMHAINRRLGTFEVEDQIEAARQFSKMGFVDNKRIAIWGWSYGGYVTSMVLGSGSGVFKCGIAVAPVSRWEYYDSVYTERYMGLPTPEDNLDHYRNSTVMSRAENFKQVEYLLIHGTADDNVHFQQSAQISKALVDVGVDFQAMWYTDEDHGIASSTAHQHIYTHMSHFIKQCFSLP
Source text: FI measurements using a Rh110 dye were done with a Safire2 reader (TECAN, Maennedorf, Switzerland). The Safire2 is a monochomator-based instrument and wavelengths of 485 nm and 535 nm were taken for fluorescence excitation and emission acquisition, respectively. The bandwidths were set to 20 nm in both the excitation and the emission path.
as §2
as §3, with “The eleven final compound concentrations were either 0.9 nM, 3 nM, 9 nM, 30 nM, 90 nM, 300 nM, 900 nM, 3 μM, 9 μM, 30 μM and 90 μM or 3 nM, 10 nM, 30 nM, 100 nM, 300 nM, 1 μM, 3 μM, 10 μM, 30 μM, 100 μM and 300 μM.” left out, “UK). […]” for “UK).”

[5] = molecular target: T5, human DPP-2 (Homo sapiens, UniProt Q9UHL4); assay: DPP-2 (dipeptidyl peptidase 2) IC50 assay, Nle-Pro-AMC fluorescence intensity
T5 construct: human DPP-2 covering amino acid 30-492; made in house; host or cells: insect cells (baculovirus expression system)
Source text: as §1
as §2, with “x.” for “x. A1 is the lowest inhibition value, i.e. 0%, and A2 the maximum inhibition value, i.e. 100%. The exponent, p, is the Hill coefficient. B. Determination of IC50 Values”
For the determination of IC50 values, the assays were performed at room temperature in 384-well plates. […] The effect of the compound on the enzymatic activity was obtained from the linear progress curves and determined from two readings, the first one taken directly after the addition of substrate (t=0 min) and the second one after 1 hour (t=60 min). The IC50 value was calculated from the plot of percentage of inhibition vs. inhibitor concentration using non-linear regression analysis software (XLfit, Vers. 4.0; ID Business Solution Ltd., Guildford, Surrey, UK). […]

[6] = molecular target: T6, human DPP-9 (Homo sapiens, UniProt Q86TI2); assay: DPP-9 (dipeptidyl-peptidase 9) IC50 assay, Gly-Pro-AMC fluorescence intensity
T6 construct: human DPP-9 covering amino acid 1-863; made in house; host or cells: Pichia pastoris
T6 sequence (Q86TI2 whole entry): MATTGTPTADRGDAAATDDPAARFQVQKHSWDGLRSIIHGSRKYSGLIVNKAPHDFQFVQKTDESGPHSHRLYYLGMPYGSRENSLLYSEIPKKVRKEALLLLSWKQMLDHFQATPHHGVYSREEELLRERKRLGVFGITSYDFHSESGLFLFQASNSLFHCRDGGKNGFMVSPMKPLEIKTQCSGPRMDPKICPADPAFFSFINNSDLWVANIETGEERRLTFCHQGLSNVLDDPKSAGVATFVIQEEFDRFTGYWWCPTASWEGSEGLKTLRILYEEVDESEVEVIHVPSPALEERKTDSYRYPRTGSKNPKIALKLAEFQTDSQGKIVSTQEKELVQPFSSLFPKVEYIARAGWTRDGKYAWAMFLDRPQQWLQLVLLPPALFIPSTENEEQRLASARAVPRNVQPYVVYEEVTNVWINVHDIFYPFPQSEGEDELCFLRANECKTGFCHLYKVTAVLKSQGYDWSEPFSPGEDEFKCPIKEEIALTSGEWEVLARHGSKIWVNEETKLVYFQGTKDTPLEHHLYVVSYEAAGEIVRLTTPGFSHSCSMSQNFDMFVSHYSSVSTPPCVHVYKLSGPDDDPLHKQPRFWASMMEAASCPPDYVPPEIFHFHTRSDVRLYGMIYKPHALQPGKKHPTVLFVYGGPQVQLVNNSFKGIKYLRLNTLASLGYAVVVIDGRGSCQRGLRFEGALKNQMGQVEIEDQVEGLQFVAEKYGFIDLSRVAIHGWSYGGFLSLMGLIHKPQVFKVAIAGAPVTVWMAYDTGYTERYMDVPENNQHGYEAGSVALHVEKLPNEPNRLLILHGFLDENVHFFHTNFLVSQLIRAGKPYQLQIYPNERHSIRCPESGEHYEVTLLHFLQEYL
Source text: as §1, §2, §3
5.—DPP-9 (dipeptidyl-peptidase 9) enzyme: human DPP-9 covering amino acid 1-863; expressed in and purified from Pichia pastoris substrate: Gly-Pro-AMC, purchased from Bachem (www.bachem.com), catalogue number I-1225 enzyme concentration: 1 nM substrate concentration: 10 μM assay buffer: 25 mM Tris, pH 7.4, 140 mM NaCl, 10 mM KCl, 0.05% (w/v) CHAPS

[7] = molecular target: T7, human DPP-IV (Homo sapiens, UniProt P27487); assay: DPP-IV (dipeptidyl peptidase IV) IC50 assay, Gly-Pro-AMC fluorescence intensity
T7 construct: human DPP-IV covering amino acid 39-766; made in house; host or cells: insect cells (baculovirus expression system)
T7 sequence (P27487 39-766): as the sequence (P27487 39-766 limits assumed) above
Source text: as §1, §2, §3
as §4, with “2.—DPP-IV (dipeptidyl peptidase IV) enzyme:” for “4.—DPP-8 (dipeptidyl-peptidase 8) enzyme:”, “human DPP-IV” for “human DPP-8”, “acid 39-766;” for “acid 1-882;”, “concentration: 0.01” for “concentration: 0.05”

[8] = individual experiments 1-4, read-out: IC50 value
[9] = mean of 4 experiments, read-out: Mean IC50 value ± SD

potency at inhibiting DPP-8 enzyme ([1]; compared with vildagliptin): less potent
Hill coefficient ([1]; human DPP-8, individual experiments 1-4): 1.2 (3×) and 1.3
IC50 ([1]; human DPP-8, individual experiments 1-4, read-out: IC50 value): 8.3 µM and 8 µM and 8.1 µM and 7.6 µM
IC50 ([1]; human DPP-8, mean of 4 experiments, read-out: Mean IC50 value ± SD): 8 ± 0.3 µM
Hill coefficient ([2]; individual experiments 1-4): 0.7 and 1.2 and 0.8 and 0.6
IC50 [2, 8]: 52 µM and 15 µM and 18 µM and 14 µM
IC50 [2, 9]: 25 ± 18 µM
Hill coefficient ([3]; individual experiments 1-4): 1.3 and 0.8 (2×) and 0.7
IC50 [3, 8]: 43 µM and 16 µM and 19 µM
IC50 [3, 9]: 24 ± 13 µM
IC50 [4, 8]: 0.003 µM and 0.004 µM
IC50 [4, 9]: 0.004 ± 0.001 µM
Hill coefficient ([4]; individual experiments 1-4): 1.4 (2×) and 1.2 (2×)
IC50 [5, 8]: > 300 µM
IC50 [5, 9]: > 90 µM
potency at inhibiting DPP-9 enzyme ([6]; compared with vildagliptin): less potent
Hill coefficient ([6]; human DPP-9, individual experiments 1-4): 1.0 (2×) and 0.9 (2×)
IC50 ([6]; human DPP-9, individual experiments 1-4, read-out: IC50 value): 0.7 µM and 0.4 µM and 0.6 µM
IC50 ([6]; human DPP-9, mean of 4 experiments, read-out: Mean IC50 value ± SD): 0.5 ± 0.2 µM
potency at inhibiting the DPP-4 enzyme ([7]; compared with vildagliptin): equally potent to vildagliptin
Hill coefficient ([7]; human DPP-IV, individual experiments 1-4): 0.7 and 0.9 and 1.3 and 1.1
IC50 ([7]; human DPP-IV, individual experiments 1-4, read-out: IC50 value): 0.004 µM and 0.006 µM and 0.007 µM and 0.005 µM
IC50 ([7]; human DPP-IV, mean of 4 experiments, read-out: Mean IC50 value ± SD): 0.006 ± 0.001 µM
SMILES: N#C[C@@H]1CCCN1C(=O)CNC12CC3CC(C1)CC(O[C@@H]1O[C@H](C(=O)O)[C@@H](O)[C@H](O)[C@H]1O)(C3)C2 [NVP-BQS867-NX-2]
